Data on eight compounds can be found in publication PMC7582324, “Potential Anti-Acetylcholinesterase Activity of Cassia timorensis DC” (Molecules, 2020).

Series [1] addresses Acetylcholinesterase (AChE) from Electrophorus electricus (electrical eels) type VI-S (Electrophorus electricus, UniProt O42275). The experiment in a line: biochemical. Type of series: biochemical. The settings on record: for inhibition at 100 µg/mL: read-out: AChE inhibition (%). As to the method:
Coloring agent 5-5′dithiobis [2-nitrobenzoicacid] (DTNB) was purchased from ACROS (Geel, Belgium). Silica gel (Kieselgel 60, 230–400 mesh atm) was purchased from Merck (Darmstadt, Germany). The solvents were of analytical grade and used as received.
The in vitro AChE inhibition assay was evaluated using a spectrophotometry method developed by Ellman with some modifications. […] Plant extracts were dissolved in dimethyl sulfoxide (DMSO) and tested at a final concentration of 0.2 mg/mL, while compounds were tested at 0.1 mg/mL. The final concentration of DMSO was fixed at 1% in the 96-well plate. In a 96-well plate, 178 µL of 50 mM phosphate buffer, 2 µL of […] compound and 20 mg/mL extract, and 10 µL of 0.5 U/mL AChE were added. The first incubation period was 15 min at 25 °C. Five microliters of 14 mM ATCI substrate and 10 mM of the color indicator, DTNB, were added equally into each well and the well was then incubated at 25 °C for 30 min to initiate the enzyme reaction. The absorbance was measured at 415 nm using Promega Glomax® Multi Plus Reader (Promega, Madison, WI, USA). […] The percentage of inhibition was calculated using formula (1):(1) Percentage Inhibition (%) = Absorbance of negative control − Absorbance of test sample/ Absorbance of negative control × 100
IC50 values of plant crude extract, fractions, and compounds were calculated from the graph of percentage of inhibition versus extract concentrations using Microsoft Excel. GraphPad Prism software was used to generate the graphs.

For a further series, the system named is AChE. To be noted: individual compounds; cited from earlier work.
The conditions of series [2]: cited from earlier work.
Where [3] appears, read: isolated compounds at 0.1 mg/mL.

Converted amounts (≈) assume the structure as drawn. “Also recorded” adds a separate entry of the source. Read-outs that look alike come from different tables or passages of the source.

Acetylcholinesterase (AChE) from Electrophorus electricus (electrical eels) type VI-S, sequence (O42275 24-633): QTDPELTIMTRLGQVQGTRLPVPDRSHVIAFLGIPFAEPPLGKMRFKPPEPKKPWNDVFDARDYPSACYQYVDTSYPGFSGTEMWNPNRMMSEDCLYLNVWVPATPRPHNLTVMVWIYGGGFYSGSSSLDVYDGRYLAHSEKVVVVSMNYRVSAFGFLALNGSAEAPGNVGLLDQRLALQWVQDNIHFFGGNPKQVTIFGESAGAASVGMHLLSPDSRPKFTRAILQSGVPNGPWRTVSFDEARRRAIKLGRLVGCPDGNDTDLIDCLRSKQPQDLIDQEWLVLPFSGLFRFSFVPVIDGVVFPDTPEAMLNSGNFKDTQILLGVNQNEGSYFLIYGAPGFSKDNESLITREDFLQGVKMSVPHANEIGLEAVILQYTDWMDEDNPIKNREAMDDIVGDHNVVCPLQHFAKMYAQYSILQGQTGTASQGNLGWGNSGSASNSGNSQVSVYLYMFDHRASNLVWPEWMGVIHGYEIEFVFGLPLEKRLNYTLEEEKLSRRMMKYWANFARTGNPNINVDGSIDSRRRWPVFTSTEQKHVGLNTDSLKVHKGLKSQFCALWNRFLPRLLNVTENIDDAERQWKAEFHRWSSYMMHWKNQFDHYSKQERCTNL

In the case of `CCCCCCCCCCCCCCCCCCO` [Compound 6, 1-octadecanol], the “AChE inhibitory activity (in words)” value in series [1] (setting [3]) is on record as “weak inhibitory activity; also recorded: not active”. Besides, the inhibition at 100 µg/mL in series [1] was < 50%.
Take `COc1c(-c2ccc(O)c(O)c2)oc2cc(O)cc(O)c2c1=O` [Compound 1, 3-methoxyquercetin]: the “AChE activity relative to quercetin” value in series [1] is “approximately three times higher than quercetin”. The “AChE inhibitory activity (in words)” value in series [1] (setting [3]) is “moderate inhibition”. For the same compound, the IC50 in series [1] (mean ± s.d. (n = 3), read-out: AChE Inhibition (IC50)) came to 83.7 ± 4.67 µM.
`CCC=CCC=CCC=CCCCCCCCC(=O)O` [Compound 3, 9,12,15-octadecatrienoic acid]: in series [1], the “AChE inhibitory activity (in words)” value is recorded as “weak inhibitory activity; also recorded: not active” and the inhibition at 100 µg/mL is < 50%.
Regarding `CC[C@H](CC[C@@H](C)[C@H]1CC[C@H]2[C@@H]3CC=C4C[C@@H](O)CC[C@]4(C)[C@H]3CC[C@]12C)C(C)C` [Compound 4, β-sitosterol], the inhibition at 100 µg/mL in series [1] is < 50%. In the series with AChE, the “IC50 against AChE” value is listed as 55 µg/mL (≈ 133 µM).
Consider `CC[C@H](/C=C/[C@@H](C)[C@H]1CC[C@H]2[C@@H]3CC=C4C[C@@H](O)CC[C@]4(C)[C@H]3CC[C@]12C)C(C)C` [Compound 5, stigmasterol], for which the inhibition at 100 µg/mL in series [1] was < 50%. For the same compound, in the series with AChE, the “IC50 against AChE” value is on record as 63 µg/mL (≈ 153 µM).
As to aceronin, the BBB permeability entry in series [2] is reported as “high BBB permeability”.
Consider `COc1cc(-c2cc(=O)c3c(O)c(OC)c(O)c(OC)c3o2)ccc1O` [sudachitin], for which the BBB permeability entry in series [2] is “high BBB permeability”.
On to `COc1ccc(-c2cc(=O)c3c(O)c(OC)c(O)c(OC)c3o2)cc1` [nevadensin], for which the BBB permeability entry in series [2] is listed as “high BBB permeability”.

The inhibition is the change of the read-out against control, counted positive when it falls. For orientation: IC50 means the midpoint of a concentration-inhibition curve.
